Experimental data published in article PMC7076013 (Scientific Reports, 2020).

Experiments:
[1] = system: HCT116, human colon carcinoma; experiment: MTT cell viability, HCT116; assay type: cell-based; conditions: 48 h
Experimental: (§1) Both melanoma and colon cancer are tumor types tightly connected with inflammation, while the expression of COX-2 in the selected cell lines was highly variable. Since a lot of discrepancies were found in the literature concerning the expression of this enzyme[5],[48]–[53], both COX-1 and COX-2 expression was analyzed by Western blot. […] The cells were treated with a wide range of doses of 4a–c, 5, and 6 for 48 h and cell viability was determined by MTT (3-(4,5-dimethylthiazol-2-yl)-2,5-diphenyltetrazolium bromide) and CV (crystal violet) assays. The obtained IC50 values were similar for both assays (Table 1).
(§2) Reagents were obtained from Sigma (St. Louis, MO) unless indicated otherwise. Annexin V - FITC (AnnV) was acquired from Biotium (Hayward, CA) and Apostat from R&D (R&D S ystems, Minneapolis, MN USA). […] After being detached b y tr ypsinization, cells were seeded in defined number as follows: 2.5 × 10^3 cells/well in 96-well plates for viability assessment and 2 × 10^4 cells/well in 24-well plates for flow cytometry. […]
(§3) Committee at IBISS (02- 09/1 6). Cells were counted and seeded in 96-well plates and incubat ed overnight. Before treatment, non- adherent cells were removed. Compounds 4a- c, 5 and 6 were dissolved in DMSO and stored at −20 °C for a m onth. Working solutions were freshl y prepared in 10% FCS-RPMI-1640. Controls were treated with culture medium containing the equivalent […]
(§4) 3.2. Cell viability tests.
(§5) The number of viable cel ls in culture was estimated by the MTT (3-(4,5- dimethylthiazol- 2-yl ) - 2,5- diphenyltetrazolium bromide) and CV (crystal violet) tests. Cells were incubated in the presence of compounds 4a- c, 5 and 6 for 48 h, then the viability was measured as described.4 […]
(§6) The results were ex pressed as a p er centage of a v alue obtained for the untr eated control cells that was arbitrarily set to be 100%. A non- linear regression analysis of obtained results was done b y using Gr aphPad Prism software to calculat e IC50 values. […]

518A2, human melanoma [2] = experiment: CV (crystal violet) cell viability, 518A2; assay type: cell-based; conditions: for IC50: 48 h; for Selectivity index 518A2: IC50 macrophages / IC50 cancer
Experimental: as §1
as §2, with “cytometry. Peritoneal resident” for “cytometry.”
(§7) for Biolo gical Research “Siniša Stanković” b y peritoneal lav age with an ice- cold phosphate buffer solution (PBS). The handling of animals and protocol for obtaining cells is in agreement with the rules of the European Union and approved by the Institutional Animal Care and Use Committee at IBISS (02- 09/1 6). Cells were counted and seeded in 96-well plates and incubat ed overnight. Before treatment, non- adherent cells were removed. Compounds 4a- c, 5 and 6 were dissolved in DMSO and stored at −20 °C for a m onth. Working solutions were freshl y prepared in 10% FCS-RPMI-1640. Controls were treated with culture medium containing the equivalent […]
as §4, §5, §6

[3] = system: CT26CL25, mouse colon carcinoma; experiment: MTT cell viability, CT26CL25; assay type: cell-based; conditions: 48 h
Experimental: as §1, §2, §3, §4, §5, §6

[4] = system: B16, mouse solid melanoma; experiment: MTT cell viability, B16; assay type: cell-based; conditions: 48 h
Experimental: as §1, §2, §3, §4, §5, §6

human recombinant COX-2 = target: T1, human recombinant COX-2 (Homo sapiens, UniProt P35354); experiment: COX Fluorescent Inhibitor Screening Assay, COX-2; assay type: biochemical; conditions: human recombinant COX-2, Cayman kit 700100
T1 construct: purchased Cayman Chemical Item No. 700100 (assay kit)
T1 sequence (P35354 18-604): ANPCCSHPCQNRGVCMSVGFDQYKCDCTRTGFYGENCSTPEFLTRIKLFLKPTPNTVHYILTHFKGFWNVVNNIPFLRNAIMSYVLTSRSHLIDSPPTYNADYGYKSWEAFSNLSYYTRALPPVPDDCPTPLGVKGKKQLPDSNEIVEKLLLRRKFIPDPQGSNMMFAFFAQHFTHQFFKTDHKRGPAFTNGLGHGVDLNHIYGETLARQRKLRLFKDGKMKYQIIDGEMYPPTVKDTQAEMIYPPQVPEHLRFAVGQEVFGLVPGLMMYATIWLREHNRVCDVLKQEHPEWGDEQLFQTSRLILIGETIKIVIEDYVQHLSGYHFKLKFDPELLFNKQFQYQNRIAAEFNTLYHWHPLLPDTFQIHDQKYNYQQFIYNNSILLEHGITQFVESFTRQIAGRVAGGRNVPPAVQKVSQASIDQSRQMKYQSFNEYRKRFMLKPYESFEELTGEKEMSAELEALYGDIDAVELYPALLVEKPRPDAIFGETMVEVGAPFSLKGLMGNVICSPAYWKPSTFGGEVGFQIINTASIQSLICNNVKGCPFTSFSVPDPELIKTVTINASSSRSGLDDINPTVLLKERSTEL
Experimental: The synthesized compounds were tested in vitro for their potential to inhibit ovine COX-1 and human recombinant COX-2.
*All compounds were measured with the Cytation 5 plate reader and the "COX Fluorescent Inhibitor […]
chemi cals, USA) " according to the manufacturer's
Error bars indicate standard error mean (SEM) obtained from two measurements at each concentration.
(1 picture or pasted object on this page, not shown here)

[5] = system: B16F10, mouse metastatic melanoma; experiment: MTT cell viability, B16F10; assay type: cell-based; conditions: 48 h
Experimental: as §1, §2, §3, §4, §5, §6

A375, human melanoma [6] = experiment: MTT cell viability, A375; assay type: cell-based; conditions: 48 h
Experimental: as §1, §2, §3, §4, §5, §6

[7] = system: SW620, human colon carcinoma; experiment: CV (crystal violet) cell viability, SW620; assay type: cell-based; conditions: for IC50: 48 h; for Selectivity index SW620: IC50 macrophages / IC50 cancer
Experimental: as §1
Reagents were obtained from Sigma (St. Louis, MO) unless indicated otherwise. […]
S ystems, Minneapolis, MN USA). […] After being detached b y tr ypsinization, cells were seeded in defined number as follows: 2.5 × 10^3 cells/well in 96-well plates for viability assessment and 2 × 10^4 cells/well in 24-well plates for flow cytometry. Peritoneal resident […]
as §7, §4, §5, §6

518A2, human melanoma [8] = experiment: MTT cell viability, 518A2; assay type: cell-based; conditions: 48 h
Experimental: as §1, §2, §3, §4, §5, §6

A375, human melanoma [9] = experiment: CV (crystal violet) cell viability, A375; assay type: cell-based; conditions: for IC50: 48 h; for Selectivity index A375: IC50 macrophages / IC50 cancer
Experimental: as §1
as §2, with “cytometry. Peritoneal resident” for “cytometry.”
as §7, §4, §5, §6

[10] = system: B16, mouse solid melanoma; experiment: CV (crystal violet) cell viability, B16; assay type: cell-based; conditions: for IC50: 48 h; for Selectivity index B16: IC50 macrophages / IC50 cancer
Experimental: as §1
as §2, with “cytometry. Peritoneal resident” for “cytometry.”
as §7, §4, §5, §6

[11] = system: B16F10, mouse metastatic melanoma; experiment: CV (crystal violet) cell viability, B16F10; assay type: cell-based; conditions: for IC50: 48 h; for Selectivity index B16F10: IC50 macrophages / IC50 cancer
Experimental: as §1
as §2, with “cytometry. Peritoneal resident” for “cytometry.”
as §7, §4, §5, §6

[12] = system: CT26CL25, mouse colon carcinoma; experiment: CV (crystal violet) cell viability, CT26CL25; assay type: cell-based; conditions: for IC50: 48 h; for Selectivity index CT26CL25: IC50 macrophages / IC50 cancer
Experimental: as §1
as §2, with “cytometry. Peritoneal resident” for “cytometry.”
as §7, §4, §5, §6

[13] = system: HCT116, human colon carcinoma; experiment: CV (crystal violet) cell viability, HCT116; assay type: cell-based; conditions: for IC50: 48 h; for Selectivity index HCT116: IC50 macrophages / IC50 cancer
Experimental: as §1
as §2, with “cytometry. Peritoneal resident” for “cytometry.”
as §7, §4, §5, §6

Row | Substance | IC50 [1] [µM] | IC50 (518A2, human melanoma [2]) [µM] | Selectivity index 518A2 (518A2, human melanoma [2]) | IC50 [3] [µM] | IC50 [4] [µM] | IC50 (human recombinant COX-2) [µM] | IC50 [5] [µM] | IC50 (A375, human melanoma [6]) [µM] | IC50 [7] [µM] | Selectivity index SW620 [7] | IC50 (518A2, human melanoma [8]) [µM] | IC50 (A375, human melanoma [9]) [µM] | Selectivity index A375 (A375, human melanoma [9]) | IC50 [10] [µM] | Selectivity index B16 [10] | IC50 [11] [µM] | Selectivity index B16F10 [11] | IC50 [12] [µM] | Selectivity index CT26CL25 [12] | IC50 [13] [µM] | also measured
1 | 4-[4-(hydroxymethyl)phenyl]-3-(1,2-dicarba-closo-dodecaboranyl)furan-2(5H)-one [Compound 4c] | 22.2 ± 0.95 | 41.2 ± 2.12 | 1.6 | 28.4 ± 2.46 | 26.1 ± 2.49 | > 100 | 28 ± 2.62 | 17.9 ± 1.26 | 44.4 ± 1.77 | 1.5 | 36.35 ± 0.21 | 10.5 ± 0.75 | 6.3 | 30.8 ± 3.22 | 2.1 | 26.5 ± 2.62 | 2.5 | 29.2 ± 2.86 | 2.3 | 19.2 ± 1.46 | Selectivity index HCT116 [13]: 3.4
2 | 4-[4-(methylsulfonyl)phenyl]-3-(1,2-dicarba-closo-dodecaboranyl)furan-2(5H)-one [Compound 4b] | 42.5 ± 1.42 | 14.8 ± 0.92 | 4.5 | 38.1 ± 0.9 | 18 ± 1.71 | > 100 | 27.3 ± 2.82 | 16.9 ± 1.35 | 21.8 ± 0.64 | 3.0 | 13.8 ± 0.21 | 14.1 ± 0.75 | 4.7 | 22.2 ± 0.65 | 3.0 | 26.6 ± 2.62 | 2.5 | 36.1 ± 1.25 | 1.8 | 35.9 | Selectivity index HCT116 [13]: 1.8
3 | R,S-7-(2-oxo-4-(4-sulfamoylphenyl)-2,5-dihydrofuran-3-yl)-7,8-dicarba-nido-dodeca-hydroundecaborate(–1) sodium [Compound 6] | > 50 | 49.7 ± 0.42 |  | > 50 | > 50 | 69.6 | > 50 | > 50 | > 50 |  | 36.9 ± 0.49 | > 50 |  | > 50 |  | > 50 |  | > 50 |  | > 50 | 
4 | 4-[4-(methylnitrooxy)phenyl]-3-(1,2-dicarba-closo-dodecaboranyl)furan-2(5 H)-one [Compound 5] | 8.9 | 5.5 ± 0.57 | 6.7 | 31.4 ± 3.27 | 10.1 ± 0.4 | > 100 | 7.95 ± 3.06 | 4.25 ± 1.65 | 10.8 ± 0.21 | 3.5 | 5.15 ± 0.64 | 4.7 ± 0.3 | 7.9 | 11.5 ± 1.05 | 3.2 | 7.65 ± 0.26 | 4.8 | 29.4 ± 2.12 | 1.3 | 9.95 ± 0.95 | Selectivity index HCT116 [13]: 3.7
5 | 4-phenyl-3-(1,2-dicarba-closo-dodecaboranyl)furan-2(5 H)-one [Compound 4a] | 13.5 | 21.4 ± 0.42 | 2.3 | 42.6 ± 3.17 | 30.8 ± 2.81 | > 100 | 24.3 ± 2.01 | 20.2 ± 1.26 | 24.8 ± 0.35 | 2.0 | 18.9 ± 1.63 | 16 ± 1.65 | 3.1 | 30.6 ± 3.86 | 1.6 | 25.4 ± 2.41 | 1.9 | 37.2 ± 2.21 | 1.3 | 12.8 ± 0.5 | Selectivity index HCT116 [13]: 3.8
